Source: patent US20230085307A1, “PYRIDAZINONE COMPOUND AND HERBICIDE” (NISSAN CHEMICAL CORPORATION, priority 2019, published 2023)

Experiments:
wheat = assay: Test Example 5: effect on crop by foliage application, plastic box (Table 20, symbol e); format: in vivo; details: 320 g/ha, three weeks after application
How it was run: (§1)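 Sow seeds spot-wise in sterilized diluvial soil; cover with ~1.5 cm soil. Grow 14 days in greenhouse, 25° C. to 30° C. Spray foliage with emulsion diluted to predetermined amount. Rate effect after 3 weeks.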

barnyard grass [1] = assay: Test Example 5: herbicidal effect by foliage application, plastic box (Table 20, symbol H); format: in vivo, barnyard grass (Echinochloa crus-galli); details: foliage application, 320 g/ha, three weeks after application
How it was run: as §1

transplanted rice = assay: Test Example 1: effect on crop, application before weed generation under submerged conditions (Table 16, symbol a); format: in vivo; details: amount of applied herbicide 320 g/ha
Description: [Test Example 1] Herbicidal Activity Test by Application before Weed Generation under Submerged Conditions After alluvial soil was placed into 1/10000 are of Wagner pot, water was poured and mixed to form a submerged condition having a water depth of 4 cm. Seeds of late watergrass, Japanese bulrush, and oval-leafed pondweed were sowed in a mixed manner in the aforementioned pot, and then 2.5 leaf stage rice plant seedlings were transplanted thereto. On the day of sowing seeds, the emulsion agent of the compound of the present invention prepared according to Formulation Example 2 was diluted with water so as to achieve a predetermined herbicide amount, and the diluted emulsion agent was applied to the surface of the water. The pot was placed in a greenhouse at 25° C. to 30° C. for growth of the plants. Three weeks after the herbicide application, the effect of the herbicide on each plant was evaluated according to the following criteria. Evaluation Criteria 5: Herbicidal rate of 90% or more (almost completely withered) 4: Herbicidal rate of 70% or more and less than 90% 3: Herbicidal rate of 40% or more and less than 70% 2: Herbicidal rate of 20% or more and less than 40% 1: Herbicidal rate of 5% or more and less than 20% 0: Herbicidal rate of 5% or less (almost no effect)

Japanese bulrush = assay: Test Example 1: herbicidal activity, application before weed generation under submerged conditions (Table 16, symbol B); format: in vivo, Japanese bulrush (Schoenoplectus juncoides); details: amount of applied herbicide 320 g/ha
How it was run: (§2)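 Emulsion formulation, water-diluted to set dose, was put onto the flooded surface (4 cm depth, alluvial soil) the same day weeds were sown and 2.5-leaf rice transplanted. After 3 weeks at 25-30 °C under glass, each species was rated 0 (≤5% kill) to 5 (≥90% kill).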

rice flat sedge = assay: Test Example 3: herbicidal effect by foliage application, Wagner pot (Table 18, symbol E); format: in vivo, rice flat sedge (Cyperus iria); details: 320 g/ha
How it was run: (§3)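 Plants were sown in alluvial soil held under 0.1–0.5 cm standing water and grown 14 days in a greenhouse at 25–30 °C. An emulsifiable formulation, water-diluted to the set dose, was then sprayed onto the foliage, and effects were scored three weeks later using previously defined criteria.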

beet = assay: Test Example 5: effect on crop by foliage application, plastic box (Table 20, symbol f); format: in vivo; details: 320 g/ha, three weeks after application
How it was run: as §1

wild oat = assay: Test Example 5: herbicidal effect by foliage application, plastic box (Table 20, symbol I); format: in vivo, wild oat (Avena fatua); details: foliage application, 320 g/ha, three weeks after application
How it was run: as §1

velvetleaf = assay: Test Example 5: herbicidal effect by foliage application, plastic box (Table 20, symbol M); format: in vivo, velvetleaf (Abutilon theophrasti); details: foliage application, 320 g/ha, three weeks after application
How it was run: as §1

persian speedwell = assay: Test Example 5: herbicidal effect by foliage application, plastic box (Table 20, symbol R); format: in vivo, Persian speedwell (Veronica persica); details: foliage application, 320 g/ha, three weeks after application
How it was run: as §1

lambsquarters = assay: Test Example 5: herbicidal effect by foliage application, plastic box (Table 20, symbol O); format: in vivo, lambsquarters (Chenopodium album); details: foliage application, 320 g/ha, three weeks after application
How it was run: as §1

green foxtail = assay: Test Example 5: herbicidal effect by foliage application, plastic box (Table 20, symbol G); format: in vivo, green foxtail (Setaria viridis); details: foliage application, 320 g/ha, three weeks after application
How it was run: as §1

southern crabgrass = assay: Test Example 5: herbicidal effect by foliage application, plastic box (Table 20, symbol F); format: in vivo, southern crabgrass (Digitaria ciliaris); details: foliage application, 320 g/ha, three weeks after application
How it was run: as §1

soybean = assay: Test Example 5: effect on crop by foliage application, plastic box (Table 20, symbol d); format: in vivo; details: 320 g/ha, three weeks after application
How it was run: as §1

Chinese sprangletop = assay: Test Example 3: herbicidal effect by foliage application, Wagner pot (Table 18, symbol D); format: in vivo, chinese sprangletop (Leptochloa chinensis); details: 320 g/ha
How it was run: as §3

blackgrass = assay: Test Example 5: herbicidal effect by foliage application, plastic box (Table 20, symbol J); format: in vivo, blackgrass (Alopecurus myosuroides); details: foliage application, 320 g/ha, three weeks after application
How it was run: as §1

redroot pigweed = assay: Test Example 5: herbicidal effect by foliage application, plastic box (Table 20, symbol N); format: in vivo, redroot pigweed (Amaranthus retroflexus); details: foliage application, 320 g/ha, three weeks after application
How it was run: as §1

chickweed = assay: Test Example 5: herbicidal effect by foliage application, plastic box (Table 20, symbol P); format: in vivo, common chickweed (Stellaria media); details: foliage application, 320 g/ha, three weeks after application
How it was run: as §1

directly sowed rice = assay: Test Example 3: effect on crop by foliage application, Wagner pot (Table 18, symbol b); format: in vivo; details: 320 g/ha
How it was run: as §3

corn = assay: Test Example 5: effect on crop by foliage application, plastic box (Table 20, symbol c); format: in vivo; details: 320 g/ha, three weeks after application
How it was run: as §1

barnyard grass [2] = assay: Test Example 3: herbicidal effect by foliage application, Wagner pot (Table 18, symbol H); format: in vivo, barnyard grass (Echinochloa crus-galli); details: 320 g/ha
How it was run: as §3

Italian ryegrass = assay: Test Example 5: herbicidal effect by foliage application, plastic box (Table 20, symbol K); format: in vivo, Italian ryegrass (Lolium multiflorum); details: foliage application, 320 g/ha, three weeks after application
How it was run: as §1

late watergrass = assay: Test Example 1: herbicidal activity, application before weed generation under submerged conditions (Table 16, symbol A); format: in vivo, late watergrass (Echinochloa oryzicola); details: amount of applied herbicide 320 g/ha
How it was run: as §2

oval-leafed pondweed = assay: Test Example 1: herbicidal activity, application before weed generation under submerged conditions (Table 16, symbol C); format: in vivo, oval-leafed pondweed (Monochoria vaginalis); details: amount of applied herbicide 320 g/ha
How it was run: as §2

rapeseed = assay: Test Example 5: effect on crop by foliage application, plastic box (Table 20, symbol g); format: in vivo; details: 320 g/ha, three weeks after application
How it was run: as §1

windgrass = assay: Test Example 5: herbicidal effect by foliage application, plastic box (Table 20, symbol L); format: in vivo, windgrass (Apera spica-venti); details: foliage application, 320 g/ha, three weeks after application
How it was run: as §1

With `COc1ccc2c(-c3c(O)c(N(Cc4ccccc4)Cc4ccccc4)nn(C)c3=O)c(-c3ccccc3OC)sc2c1` [Compound No. 3-086, 6-(dibenzylamino)-5-hydroxy-4-(6-methoxy-2-(2-methoxyphenyl)benzo[b]thiophen-3-yl)-2-methylpyridazin-3(2H)-one] the “e: wheat, effect on crop grade” value (wheat) was 0 (Herbicidal rate of 5% or less (almost no effect)), the “H: barnyard grass, herbicidal effect grade” value (barnyard grass [1]) was 0 (Herbicidal rate of 5% or less (almost no effect)) and the “Effect on crop, a: transplanted rice” value (transplanted rice) was 0 (Herbicidal rate of 5% or less (almost no effect)). The “Herbicidal effect, B: Japanese bulrush” value (Japanese bulrush) was 2 (Herbicidal rate of 20% or more and less than 40%), the “herbicidal effect on rice flat sedge (E)” value (rice flat sedge) was 0 (Herbicidal rate of 5% or less (almost no effect)) and the “f: beet, effect on crop grade” value (beet) was 0 (Herbicidal rate of 5% or less (almost no effect)). The “I: wild oat, herbicidal effect grade” value (wild oat) was 0 (Herbicidal rate of 5% or less (almost no effect)), the “M: velvetleaf, herbicidal effect grade” value (velvetleaf) was 0 (Herbicidal rate of 5% or less (almost no effect)) and the “R: persian speedwell, herbicidal effect grade” value (persian speedwell) was 0 (Herbicidal rate of 5% or less (almost no effect)). The “O: lambsquarters, herbicidal effect grade” value (lambsquarters) was 1 (Herbicidal rate of 5% or more and less than 20%), the “G: green foxtail, herbicidal effect grade” value (green foxtail) was 0 (Herbicidal rate of 5% or less (almost no effect)) and the “F: southern crabgrass, herbicidal effect grade” value (southern crabgrass) was 0 (Herbicidal rate of 5% or less (almost no effect)). For the same compound, the “d: soybean, effect on crop grade” value (soybean) was 3 (Herbicidal rate of 40% or more and less than 70%), the “herbicidal effect on Chinese sprangletop (D)” value (Chinese sprangletop) was 0 (Herbicidal rate of 5% or less (almost no effect)) and the “J: blackgrass, herbicidal effect grade” value (blackgrass) was 3 (Herbicidal rate of 40% or more and less than 70%). For the same compound, the “N: redroot pigweed, herbicidal effect grade” value (redroot pigweed) was 5 (Herbicidal rate of 90% or more (almost completely withered)), the “P: chickweed, herbicidal effect grade” value (chickweed) was 0 (Herbicidal rate of 5% or less (almost no effect)) and the “effect on directly sowed rice (b)” value (directly sowed rice) was 0 (Herbicidal rate of 5% or less (almost no effect)). For the same compound, the melting point was 163 to 166 °C, the “c: corn, effect on crop grade” value (corn) was 0 (Herbicidal rate of 5% or less (almost no effect)) and the “herbicidal effect on barnyard grass (H)” value (barnyard grass [2]) was 3 (Herbicidal rate of 40% or more and less than 70%). The “K: Italian ryegrass, herbicidal effect grade” value (Italian ryegrass) was 0 (Herbicidal rate of 5% or less (almost no effect)), the “Herbicidal effect, A: late watergrass” value (late watergrass) was 0 (Herbicidal rate of 5% or less (almost no effect)) and the “Herbicidal effect, C: oval-leafed pondweed” value (oval-leafed pondweed) was 0 (Herbicidal rate of 5% or less (almost no effect)). The “g: rapeseed, effect on crop grade” value (rapeseed) was 5 (Herbicidal rate of 90% or more (almost completely withered)) and the “L: windgrass, herbicidal effect grade” value (windgrass) was 0 (Herbicidal rate of 5% or less (almost no effect)).
